Source: paper PMC7594721, “Synthesis and biological activity of 2-cyanoacrylamide derivatives tethered to imidazopyridine as TAK1 inhibitors” (Journal of Enzyme Inhibition and Medicinal Chemistry, 2020)

Legend:
[1] = biological target: T1, TAK1 (Homo sapiens, UniProt O43318); assay: TAK1 LanthaScreen Eu Kinase Binding Assay (Invitrogen; Table 1 calls it TAK1 enzymatic assay); conditions: for TAK1 potency, SAR result in words: Table 1 SAR discussion; for IC50: read-out: IC50 against TAK1
T1 construct: purchased Invitrogen (Thermo Fisher Scientific)
T1 sequence (O43318 with tags, fused parts or gaps limits assumed): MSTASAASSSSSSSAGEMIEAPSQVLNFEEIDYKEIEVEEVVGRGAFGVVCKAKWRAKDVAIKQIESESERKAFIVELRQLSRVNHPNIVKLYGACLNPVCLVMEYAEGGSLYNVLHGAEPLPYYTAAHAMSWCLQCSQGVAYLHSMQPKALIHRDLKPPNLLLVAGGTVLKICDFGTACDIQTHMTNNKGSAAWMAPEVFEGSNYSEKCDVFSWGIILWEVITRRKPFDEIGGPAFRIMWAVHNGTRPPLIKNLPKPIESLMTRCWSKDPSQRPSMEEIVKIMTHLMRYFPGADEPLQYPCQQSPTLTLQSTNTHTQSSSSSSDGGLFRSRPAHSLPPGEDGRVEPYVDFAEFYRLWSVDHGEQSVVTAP
Experimental: Kinase assays were performed by Invitrogen (now Thermo Fisher Scientific, Waltham, MA) or Reaction Biology Corp. (Malvern, PA). Inhibitory activity of compounds for TAK1 was evaluated using LanthaScreen® Eu Kinase Binding Assay (Invitrogen, Waltham, MA). The kinase profile of compound 13h was determined by the kinase HotSpot Profiling service of Reaction Biology Corporation. All assays were performed at Km for ATP.
Table 1. TAK1 enzymatic assay with imidazopyridine derivatives. ^a In-vitro enzymatic assay data obtained from Invitrogen^TM.

[2] = tested on: MDA-MB-231 cells; assay: Caspase-3/7 assay (Apo-ONE); format: cell-based; conditions: 10 µM, presence of TNFα (10 ng/ml), 24 h, MDA-MB-231, positive control
Experimental: MDA-MB-231 cells were obtained from the Korean Cell Line Bank. Cells were cultured in Roswell Park Memorial Institute (RPMI) 1640 medium containing 10% foetal bovine serum and 1% penicillin/streptomycin at 37 °C with 5% CO2 under humidified atmosphere.
The assay was performed using Apo-ONE® Homogeneous Caspase-3/7 Assay kits (Catalogue No. G7790, Promega, Madison, WI). MDA-MB-231 cells in a concentration of 5000 cells/100 µl were seeded in each well of a black 96-well plate and starved after adhering to the plate. The cells were incubated for 24 h, and the serum-starved cells were treated with either Takinib or 13h in the presence or absence of TNFα (10 ng/ml). All samples and the control contained DMSO in a final concentration of 0.5%. After another 24 h of incubation, 100 µL of Apo-ONE® caspase-3/7 reagent was added to each well, and the cells were incubated at room temperature in darkness for 2 h. Fluorescence was then measured at 530 nm with excitation at 485 nm using a FlexStation 3 Multi-Mode microplate reader (Molecular Devices). Statistical analyses of the data included a one-way ANOVA, followed by Tukey’s multiple comparison test.

TAK1 potency, SAR result in words [1] | Compound | also measured
maintained or improved potency | CN1CCN(c2ccc(-c3nc4c(N5CC[C@@H](NC(=O)/C(C#N)=C/c6cccc(F)n6)C5)c(Cl)cnc4[nH]3)cc2)CC1 [Compound 13f, (R,E)-N-(1-(6-chloro-2-(4-(4-methylpiperazin-1-yl)phenyl)-3H-imidazo[4,5-b]pyridin-7-yl)pyrrolidin-3-yl)-2-cyano-3–(6-fluoropyridin-2-yl)acrylamide] | 
 | CCCn1/c(=N/C(=O)c2cccc(C(N)=O)c2)[nH]c2ccccc21 [Takinib, reference compound] | caspase-3/7 activity [2]: significant caspase activation
increased | COc1ccc(/C=C(\C#N)C(=O)N[C@@H]2CCN(c3c(Cl)cnc4[nH]c(-c5ccc(N6CCN(C)CC6)cc5)nc34)C2)nc1 [Compound 13k, (R,E)-N-(1–(6-chloro-2–(4-(4-methylpiperazin-1-yl)phenyl)-3H-imidazo[4,5-b]pyridin-7-yl)pyrrolidin-3-yl)-2-cyano-3-(5-methoxypyridin-2-yl)acrylamide] | 
excellent | Cc1ccnc(/C=C(\C#N)C(=O)N[C@@H]2CCN(c3c(Cl)cnc4[nH]c(-c5ccc(N6CCN(C)CC6)cc5)nc34)C2)c1 [Compound 13l, (R,E)-N-(1-(6-chloro-2-(4-(4-methylpiperazin-1-yl)phenyl)-3H-imidazo[4,5-b]pyridin-7-yl)pyrrolidin-3-yl)-2-cyano-3–(4-methylpyridin-2-yl)acrylamide] | 
increased | CN1CCN(c2ccc(-c3nc4c(N5CC[C@@H](NC(=O)/C(C#N)=C/c6cccc(Cl)n6)C5)c(Cl)cnc4[nH]3)cc2)CC1 [Compound 13g, (R,E)-N-(1–(6-chloro-2–(4–(4-methylpiperazin-1-yl)phenyl)-3H-imidazo[4,5-b]pyridin-7-yl)pyrrolidin-3-yl)-3-(6-chloropyridin-2-yl)-2-cyanoacrylamide] | 
highest potency | Cc1csc(/C=C(\C#N)C(=O)N[C@@H]2CCN(c3c(Cl)cnc4[nH]c(-c5ccc(N6CCN(C)CC6)cc5)nc34)C2)n1 [Compound 13b, (R,E)-N-(1-(6-chloro-2-(4-(4-methylpiperazin-1-yl)phenyl)-3H-imidazo[4,5-b]pyridin-7-yl)pyrrolidin-3-yl)-2-cyano-3-(4-methylthiazol-2-yl)acrylamide] | 
increased | CN1CCN(c2ccc(-c3nc4c(N5CC[C@@H](NC(=O)/C(C#N)=C/c6cccc(C7CC7)n6)C5)c(Cl)cnc4[nH]3)cc2)CC1 [Compound 13i, (R,E)-N-(1–(6-chloro-2–(4-(4-methylpiperazin-1-yl)phenyl)-3H-imidazo[4,5-b]pyridin-7-yl)pyrrolidin-3-yl)-2-cyano-3-(6-cyclopropylpyridin-2-yl)acrylamide] | 
 | CN1CCN(c2ccc(-c3nc4c(N5CC[C@@H](NC(=O)/C(C#N)=C/c6ccccc6)C5)c(Cl)cnc4[nH]3)cc2)CC1 [Compound 13a, (R,E)-N-(1-(6-chloro-2-(4-(4-methylpiperazin-1-yl)phenyl)-3H-imidazo[4,5-b]pyridin-7-yl)pyrrolidin-3-yl)-2-cyano-3-phenylacrylamide] | IC50 fold lower than the IC50 of 14 ([1]; TAK1, compared with 14): ~2.5 fold; IC50 [1]: 385 nM
 | C=CC(=O)N[C@@H]1CCN(c2nc(Nc3ccc(N4CCN(C)CC4)cc3)ncc2Cl)C1 [Compound 6] | IC50 [1]: 413 nM
 | (R)-N-(1–(5-chloro-2-((4–(4-methylpiperazin-1-yl)phenyl)amino)pyrimidin-4-yl)pyrrolidin-3-yl)acrylamide [Compound 14] | IC50 relative to that of the pyrimidine (6) ([1]; TAK1, compared with 6): approximately twice; IC50 [1]: 961 nM
excellent | Cc1ccc(/C=C(\C#N)C(=O)N[C@@H]2CCN(c3c(Cl)cnc4[nH]c(-c5ccc(N6CCN(C)CC6)cc5)nc34)C2)nc1 [Compound 13j, (R,E)-N-(1–(6-chloro-2–(4-(4-methylpiperazin-1-yl)phenyl)-3H-imidazo[4,5-b]pyridin-7-yl)pyrrolidin-3-yl)-2-cyano-3-(5-methylpyridin-2-yl)acrylamide] | 
